Laboratory results as given in US7674819B2 (Warner-Lambert Company LLC, priority 2005, dated 2010).
Where a chain is given by its changes, count along the chain named. pIC50: −log10 of the molar value. Read-outs that look alike come from different tables or passages of the source.

How the values were obtained:
androgen receptor = molecular target: T1, androgen receptor (Homo sapiens, UniProt P10275); test: AR Antagonist Cell Assay (MDA-MB453-MMTV clone 54-19, luciferase reporter); assay type: cell-based; conditions: inhibition of induction by DHT (final concentration at 100 μM), 17 hr, compound 0.32-1000 nM, mean of multiple tests
T1 sequence (P10275 1-920 Q868H): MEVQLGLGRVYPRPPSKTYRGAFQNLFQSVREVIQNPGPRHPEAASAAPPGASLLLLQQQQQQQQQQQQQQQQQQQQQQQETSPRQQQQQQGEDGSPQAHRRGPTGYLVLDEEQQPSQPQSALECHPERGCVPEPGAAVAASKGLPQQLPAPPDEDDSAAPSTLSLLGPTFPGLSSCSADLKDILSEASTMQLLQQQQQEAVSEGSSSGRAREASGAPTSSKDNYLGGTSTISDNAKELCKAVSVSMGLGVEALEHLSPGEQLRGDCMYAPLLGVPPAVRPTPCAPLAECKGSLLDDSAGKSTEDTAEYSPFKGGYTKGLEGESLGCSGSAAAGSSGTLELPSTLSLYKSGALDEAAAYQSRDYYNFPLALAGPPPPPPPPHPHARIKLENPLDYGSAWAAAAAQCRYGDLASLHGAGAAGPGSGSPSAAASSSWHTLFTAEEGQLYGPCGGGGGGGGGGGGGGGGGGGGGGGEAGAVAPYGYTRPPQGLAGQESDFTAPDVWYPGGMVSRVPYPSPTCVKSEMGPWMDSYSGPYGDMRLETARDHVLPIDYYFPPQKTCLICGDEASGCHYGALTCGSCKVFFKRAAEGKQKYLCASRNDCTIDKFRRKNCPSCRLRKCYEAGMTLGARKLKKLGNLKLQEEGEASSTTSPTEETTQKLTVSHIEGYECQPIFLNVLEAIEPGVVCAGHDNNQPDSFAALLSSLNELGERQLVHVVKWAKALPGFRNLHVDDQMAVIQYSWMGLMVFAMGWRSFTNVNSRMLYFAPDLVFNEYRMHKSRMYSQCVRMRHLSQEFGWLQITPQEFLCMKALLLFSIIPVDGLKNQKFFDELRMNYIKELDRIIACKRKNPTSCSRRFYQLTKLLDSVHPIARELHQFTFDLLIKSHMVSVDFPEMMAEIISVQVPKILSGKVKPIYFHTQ
Outline: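 MDA-MB453 breast tumour cells stably carrying an ARE-containing MMTV promoter driving firefly luciferase, plated overnight at 37° C in charcoal-treated serum medium. DHT added (final […]) and incubated 17 hr at 37° C. Luminescence read after adding luciferase buffer; values are means of multiple tests.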

hAR = molecular target: T2, hAR (Homo sapiens, UniProt P10275); test: Competitive binding of 3H-DHT to baculovirus/Sf9 generated hAR extracts; conditions: one hour at 4° C., mean of multiple tests
T2 sequence (P10275 1-920): T1 sequence (P10275 1-920 Q868H) with H868Q
Outline: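 Baculovirus/Sf9-expressed hAR extract incubated with test compound, hydroxylapatite and 1 nM 3H-DHT tracer for 1 h at 4° C, then washed free of unbound tracer. Affinity given as concentration inhibiting half of maximal 3H-DHT binding.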

[1] = IC50, concentration at which one half of maximum binding of 1 nM 3H-DHT to hAR is inhibited
[2] = concentration at which one half of maximum binding of 1 nM 3H-DHT to hAR is inhibited, read-out: IC50

| Compound | pIC50 (androgen receptor) | pIC50 (hAR; [1]) | pIC50 (androgen receptor; read-out: IC50) | pIC50 (hAR; [2]) |
| --- | --- | --- | --- | --- |
| CCCCN1CC(C)(C)C(Oc2ccc(C#N)c(C(F)(F)F)c2)C1=O (single isomer, unassigned; (+)) [Example 20, (+)-4-(1-Butyl-4,4-dimethyl-2-oxo-pyrrolidin-3-yloxy)-2-trifluoromethyl-benzonitrile] | 7.89 | 7.01 | – | – |
| CCCS(=O)(=O)N1CC(C)(C)C(Oc2ccc(C#N)c(C(F)(F)F)c2)C1=O (single isomer, unassigned; (+)) [Example 82, (+)-4-[4,4-Dimethyl-2-oxo-1-(propane-1-sulfonyl)-pyrrolidin-3-yloxy]-2-trifluoromethyl-benzonitrile] | 7.25 | 7.33 | – | – |
| CC[C@H](C)N1CC(C)(C)[C@@H](Oc2ccc(C#N)c(C(F)(F)F)c2)C1=O [Example 1, (3R,S)-(+)-4-(1-sec-Butyl-4,4-dimethyl-2-oxo-pyrrolidin-3-yloxy)-2-trifluoromethyl-benzonitrile] | 7.48 | 6.87 | – | – |
| CCCN1CC(C)(C)C(Oc2ccc(C#N)c(C(F)(F)F)c2)C1=O (centres unmarked) [Example 4, 4-(4,4-dimethyl-2-oxo-1-propyl-pyrrolidin-3-yloxy)-2-trifluoromethyl-benzonitrile] | 7.59 | 6.73 | – | – |
| CCCN1CC(C)(C)[C@@H](Oc2ccc(C#N)c(C(F)(F)F)c2)C1=O [Example 4A, (+)-4-(1-Propyl-4,4-dimethyl-2-oxo-pyrrolidin-3-yloxy)-2-trifluoromethyl-benzonitrile (E2)] | 7.04 | 6.64 | – | – |
| CC1(C)CN(S(C)(=O)=O)C(=O)C1Oc1ccc(C#N)c(C(F)(F)F)c1 (centres unmarked) [Example 81, 4-(1-methanesulfonyl-4,4-dimethyl-2-oxo-pyrrolidin-3-yloxy)-2-trifluoromethyl-benzonitrile] | – | – | 6.70 | 6.86 |
| CC(c1ccccc1)N1CC(C)(C)C(Oc2ccc(C#N)cc2Cl)C1=O (centres unmarked) [Example 109] | – | – | 7.85 | 6.69 |
